Experimental data from publication PMC12028158, “Synthesis and In Vitro Evaluation of the Anticancer Effect of Novel Phosphonium Vindoline Derivatives” (International Journal of Molecular Sciences, 2025).

How the values were obtained:
Type in all cases: cell-based
[1] = system: Renal Cancer panel; assay: NCI60 five-dose screen, panel mean; details: Homo sapiens; mean over Renal Cancer panel; read-out: Mean GI50
[2] = system: SK-MEL-28; assay: NCI60 one-dose screen; details: Homo sapiens; SK-MEL-28, 10 μM, one-dose; read-out: Growth percent
[3] = system: MDA-MB-231/ATCC; assay: NCI60 one-dose screen; details: Homo sapiens; MDA-MB-231/ATCC, 10 μM, one-dose; read-out: Growth percent
[4] = system: KM12; assay: NCI60 one-dose screen; details: Homo sapiens; KM12, 10 μM, one-dose; read-out: Growth percent
[5] = system: MOLT-4; assay: NCI60 five-dose screen; details: Homo sapiens; MOLT-4, Leukemia, five-dose; read-out: GI50
[6] = system: NCI/ADR-RES; assay: NCI60 five-dose screen; details: Homo sapiens, Ovarian Cancer, five-dose, read-out: GI50
[7] = system: SK-OV-3; assay: NCI60 one-dose screen; details: Homo sapiens; SK-OV-3, 10 μM, one-dose; read-out: Growth percent
[8] = system: BT-549; assay: NCI60 one-dose screen; details: Homo sapiens; BT-549, 10 μM, one-dose; read-out: Growth percent
[9] = system: SR; assay: NCI60 one-dose screen; details: Homo sapiens, 10 μM, one-dose, read-out: Growth percent
[10] = system: HOP-92; assay: NCI60 one-dose screen; details: Homo sapiens; HOP-92, 10 μM, one-dose; read-out: Growth percent
[11] = system: SF-295; assay: NCI60 one-dose screen; details: Homo sapiens; SF-295, 10 μM, one-dose; read-out: Growth percent
[12] = system: 786-0; assay: NCI60 one-dose screen; details: Homo sapiens; 786-0, 10 μM, one-dose; read-out: Growth percent
[13] = system: MDA-MB-468; assay: NCI60 one-dose screen; details: Homo sapiens; MDA-MB-468, 10 μM, one-dose; read-out: Growth percent
[14] = system: PC-3; assay: NCI60 one-dose screen; details: Homo sapiens; PC-3, 10 μM, one-dose; read-out: Growth percent
[15] = system: Colon Cancer panel; assay: NCI60 five-dose screen, panel mean; details: Homo sapiens; mean over Colon Cancer panel; read-out: Mean GI50
[16] = system: OVCAR-8; assay: NCI60 five-dose screen; details: Homo sapiens; OVCAR-8, Ovarian Cancer, five-dose; read-out: GI50
[17] = system: M14; assay: NCI60 five-dose screen; details: Homo sapiens; M14, Melanoma, five-dose; read-out: GI50
[18] = system: Melanoma panel; assay: NCI60 five-dose screen, panel mean; details: Homo sapiens; mean over Melanoma panel; read-out: Mean GI50
[19] = system: OVCAR-8; assay: NCI60 one-dose screen; details: Homo sapiens; OVCAR-8, 10 μM, one-dose; read-out: Growth percent
[20] = system: HCC-2998; assay: NCI60 one-dose screen; details: Homo sapiens; HCC-2998, 10 μM, one-dose; read-out: Growth percent
[21] = system: PC-3; assay: NCI60 five-dose screen; details: Homo sapiens; PC-3, Prostate Cancer, five-dose; read-out: GI50
[22] = system: SW-620; assay: NCI60 one-dose screen; details: Homo sapiens; SW-620, 10 μM, one-dose; read-out: Growth percent
[23] = system: TK-10; assay: NCI60 one-dose screen; details: Homo sapiens; TK-10, 10 μM, one-dose; read-out: Growth percent
[24] = system: RXF 393; assay: NCI60 one-dose screen; details: Homo sapiens; RXF 393, 10 μM, one-dose; read-out: Growth percent
[25] = system: 786-0; assay: NCI60 five-dose screen; details: Homo sapiens; 786-0, Renal Cancer, five-dose; read-out: GI50
[26] = system: LOX IMVI; assay: NCI60 five-dose screen; details: Homo sapiens, Melanoma, five-dose, read-out: GI50
[27] = system: SNB-19; assay: NCI60 five-dose screen; details: Homo sapiens, SNB-19, SNB-19, CNS Cancer, five-dose; read-out: GI50
[28] = system: MOLT-4; assay: NCI60 one-dose screen; details: Homo sapiens; MOLT-4, 10 μM, one-dose; read-out: Growth percent
[29] = system: OVCAR-4; assay: NCI60 one-dose screen; details: Homo sapiens; OVCAR-4, 10 μM, one-dose; read-out: Growth percent
[30] = system: Non-small Cell Lung Cancer panel; assay: NCI60 five-dose screen, panel mean; details: Homo sapiens; mean over Non-small Cell Lung Cancer panel; read-out: Mean GI50
[31] = system: SNB-75; assay: NCI60 one-dose screen; details: Homo sapiens; SNB-75, 10 μM, one-dose; read-out: Growth percent
[32] = system: A498; assay: NCI60 one-dose screen; details: Homo sapiens; A498, 10 μM, one-dose; read-out: Growth percent
[33] = system: UACC-257; assay: NCI60 one-dose screen; details: Homo sapiens; UACC-257, 10 μM, one-dose; read-out: Growth percent
[34] = system: T-47D; assay: NCI60 one-dose screen; details: Homo sapiens, T47D; T-47D, 10 μM, one-dose; read-out: Growth percent
[35] = system: HT29; assay: NCI60 five-dose screen; details: Homo sapiens, HT-29; HT29, Colon Cancer, five-dose; read-out: GI50
[36] = system: OVCAR-5; assay: NCI60 five-dose screen; details: Homo sapiens; OVCAR-5, Ovarian Cancer, five-dose; read-out: GI50
[37] = system: RPMI-8226; assay: NCI60 one-dose screen; details: Homo sapiens; RPMI-8226, 10 μM, one-dose; read-out: Growth percent
[38] = system: K-562; assay: NCI60 five-dose screen; details: Homo sapiens, K562; K-562, Leukemia, five-dose; read-out: GI50
[39] = system: BT-549; assay: NCI60 five-dose screen; details: Homo sapiens; BT-549, Breast Cancer, five-dose; read-out: GI50
[40] = system: NCI-H522; assay: NCI60 one-dose screen; details: Homo sapiens; NCI-H522, 10 μM, one-dose; read-out: Growth percent
[41] = system: SF-539; assay: NCI60 five-dose screen; details: Homo sapiens; SF-539, CNS Cancer, five-dose; read-out: GI50
[42] = system: CAKI-1; assay: NCI60 one-dose screen; details: Homo sapiens; CAKI-1, 10 μM, one-dose; read-out: Growth percent
[43] = system: OVCAR-3; assay: NCI60 one-dose screen; details: Homo sapiens; OVCAR-3, 10 μM, one-dose; read-out: Growth percent
[44] = system: NCI-H322M; assay: NCI60 five-dose screen; details: Homo sapiens, Non-small Cell Lung Cancer, five-dose, read-out: GI50
[45] = system: HCT-15; assay: NCI60 one-dose screen; details: Homo sapiens; HCT-15, 10 μM, one-dose; read-out: Growth percent

## CC[C@]12C=CCN3CC[C@@]4(c5ccc(OC)cc5N(C)[C@H]4[C@@](O)(C(=O)OC)[C@@H]1OC(=O)CCC[P+](c1ccccc1)(c1ccccc1)c1ccccc1)[C@@H]32 [compound 3, reference compound]
[1]
  GI50: 3520 nM
[2]
  activity at 10 µM: 20.9%
[3]
  activity at 10 µM: 1.29%
[4]
  activity at 10 µM: -27.2%
[5]
  GI50: 614 nM
[6]
  GI50: > 50000 nM
[7]
  activity at 10 µM: -21%
[8]
  activity at 10 µM: 11%
[9]
  activity at 10 µM: 9.57%
[10]
  activity at 10 µM: -40%
[11]
  activity at 10 µM: 23.3%
[12]
  activity at 10 µM: 20.6%
[13]
  activity at 10 µM: -75.6%
[14]
  activity at 10 µM: 2.13%
[15]
  GI50: 1690 nM
[16]
  GI50: 1270 nM
[17]
  GI50: 790 nM
[18]
  GI50: 450 nM
[19]
  activity at 10 µM: 3.13%
[20]
  activity at 10 µM: -22.5%
[21]
  GI50: 204 nM
[22]
  activity at 10 µM: 17.4%
[23]
  activity at 10 µM: 22.3%
[24]
  activity at 10 µM: 28.9%
[25]
  GI50: 2740 nM
[26]
  GI50: 858 nM
[27]
  GI50: 334 nM
[28]
  activity at 10 µM: 5.41%
[29]
  activity at 10 µM: -3.58%
[30]
  GI50: 1110 nM
[31]
  activity at 10 µM: -4.39%
[32]
  activity at 10 µM: 124%
[33]
  activity at 10 µM: -27.3%
[34]
  activity at 10 µM: 1.08%
[35]
  GI50: 266 nM
[36]
  GI50: 1200 nM
[37]
  activity at 10 µM: -12.7%
[38]
  GI50: 360 nM
[39]
  GI50: 380 nM
[40]
  activity at 10 µM: -35.4%
[41]
  GI50: 662 nM
[42]
  activity at 10 µM: 52.2%
[43]
  activity at 10 µM: -2.49%
[44]
  GI50: 2330 nM
[45]
  activity at 10 µM: 101%
